Read-outs that look alike come from different tables or passages of the source.
Columns and labels:
[1] = test system: human peripheral blood mononuclear cells; assay: Cytokine profiling in LPS-stimulated hPBMC; assay type: cell-based; details: for IL-10 (% of control) / MCP-1 (% of control) / RANTES (% of control): 0.1 μM concentration; for IC50: Homo sapiens, PBMC, 18 h, LPS 1 ng/ml, 18 hours
Description: Fifty ml human buffy coat was aliquoted 25 ml each into two 50 ml conical tubes and 25 ml sterile HBSS was added to each conical tube. The tubes were gently mixed by inverting. Fifteen ml of room temperature Ficoll-Paque Plus (GE Healthcare (location); cat #17-1440-02) was aliquoted into four 50 ml conical tubes. Then 25 ml of the Buffy coat/IBSS mixture was layered gently and slowly on top of the Ficoll. The samples were centrifuged at 450 rpm for 35 minutes. The top layered containing plasma was pipetted off and discarded. The interface containing mononuclear cells was transferred into two 50 ml conical tubes. Both conical tubes were filled to total volume of 50 ml with HBSS and centrifuged at 1200 rpm for 10 minutes. The cells were washed again in HBSS and spun at 1000 rpm for 10 minutes. Cell pellet was resuspended with 20 ml RPMI complete medium (RPMI/5% human sera/1× pen/strep/glut) and counted.
One hundred μl (2×10^6/ml) of hPBMCs were added to each well of a 96 well flat-bottom plate (final cell count=2×10^5/well) and incubated at 37° C. for 1 hour. Twenty μl (10×) compound was added to each test well and twenty μl medium containing 2.5% DMSO was added to each control well ([DMSO]final=0.25%) and plate was incubated for 1 hour at 37° C. Cells were then stimulated with 80 μl of 2.5 ng/ml LPS ([LPS]final=1 ng/ml) and incubated for 18 hours at 37° C. Fifty μl supernatant from each well was transferred into 3 new round-bottomed 96 well plates and stored at −20° C. for Luminex analysis. Duplicate wells were performed for each sample.
Supernatant samples were analyzed for cytokines in multiplex format according to the manufacturer's instructions (Millipore, Billerica, Ma 01821) using a Luminex IS100 instrument. IL-12 and GM-CSF analyses were done in a two-plex format using neat supernatants while all other cytokines were done in a multiplex format using supernatants diluted 1:20. Data analysis was performed using Upstate Beadview software. […] The IC50 were performed using GraphPad Prism v5.00. The data values represent the mean+SEM (standard error of the mean) of n (number of experiments in duplicate).

[2] = test system: megakaryocyte progenitor cells (normal human bone marrows); assay: Megakaryocyte colony formation assay; assay type: cell-based; details: Homo sapiens, 14-16 days
Description: Colony formation assay was conducted with normal human bone marrows treated in semi-solid collagen matrix with compound/IL-3/IL-6/Tpo for 14-16 days, and the results are summarized in Table 7.

NK cells = assay: NK IgG-induced IFN-γ assay; assay type: cell-based, human; details: immobilized IgG and IL-2 stimulation; 7 donors
Description: NK cells from healthy donors were isolated from buffy coat blood by negative selection using the RosetteSep NK cell enrichment cocktail (Stem Cell Technologies, Vancouver, BC) prior to Ficoll-Hypaque (Fisher Scientific Co LLC, PA) density gradient centrifugation following the manufacturers' instructions. CD56+NK cells were isolated to ˜85% purity, as determined by flow cytometry (BD Biosciences, CA).
NK IgG-induced Interferon-Gamma (IFN-γ) Assay: Ninety-six-well flat-bottom plates were coated with 100 µg/mL of human IgG (Sigma) overnight at 4° C. The next day, unbound IgG was washed away with cold 1×PBS. NK cells were then plated in the IgG-coated 96-well plates at 2×10^5 cells per well in 180 μL RPMI-1640 Media and 10 ng/mL of rhIL-2 (R & D Systems, MN) was added. Test compounds were added in a volume of 20 μL DMSO. Final concentrations of test compounds were […]. Final DMSO concentrations were […]. After 48 hours, the supernatants were harvested and analyzed by ELISA for IFN-γ production.
Data used to determine the test compounds to enhance NK cell IFN-γ production in response to immobilized IgG and rhIL-2 stimulation was analyzed for each donor using GraphPad Prism v5.0 software.

[3] = test system: anti-CD3-stimulated human T cells; assay: Cytokine production by T cells (multi-plex CBA); assay type: cell-based; details: for IL-10 production at high concentration: >10 nM
Description: T cells were isolated from buffy coat by negative selection using the RosetteSep® T Cell Enrichment Cocktail. The manufacturer's procedures were followed accordingly. All 96-well plates were pre-coated with […] anti-human CD3 antibody in 100 μl 1×PBS for 4 hours at 37° C. The plates were washed three times with RPMI-1640 Complete Media prior to the T cell assay. T cells were then plated in CD3 pre-coated plates at a density of 2.5×10^5 cells/well in 180 μl RPMI-1640 Complete Media. The cells were treated with 20 μl 10× titrated compounds at 10, 1, 0.1, 0.01, 0.001, 0.0001 and 0.00001 μM. Final DMSO concentrations were 0.25%. The plates were incubated for 48 hours at 37° C., 5% CO2. After 48 hours, the supernatants were harvested and tested by a multi-plex cytometric bead array (CBA) assay for the following cytokines/chemokines: IL-2, IL-3, IL-5, IL-10, IL-13, IL-15, IL-17a, GM-CSF, G-SCF, IFN-γ, TNF-α and RANTES. The CBA plates were analyzed on the Luminex IS100 instrument. Data from each donor was graphed using GraphPad Prism 5.0 software and expressed as mean pg/mL±SEM and % of DMSO control±SEM.

[4] = test system: NCI-H929 Multiple Myeloma xenograft; assay: NCI-H929 Multiple Myeloma xenograft model; assay type: in vivo, mouse; details: mouse, in vivo
Description: Compounds I, I-R, and I-S were tested in NCI-H929 Multiple Myeloma xenograft model, and the results are depicted in FIG. 24.

[5] = test system: U87 Glioblastoma xenograft; assay: U87 Glioblastoma xenograft model; assay type: in vivo, mouse
Description: Compounds I, I-R, and I-S were tested in U87 Glioblastoma xenograft model, and the results are depicted in FIG. 25.

[6] = read-out: GM-CSF production IC50
[7] = read-out: IL-1β production IC50
[8] = read-out: MIP-1β production IC50
[9] = read-out: TNF-α production IC50
[10] = Bone Marrow ID 0090128, read-out: Immature Colony IC50
[11] = Bone Marrow ID 0090128, read-out: Intermediate Colony IC50
[12] = Bone Marrow ID 0090616, read-out: Immature Colony IC50
[13] = Bone Marrow ID 0090616, read-out: Intermediate Colony IC50
[14] = Bone Marrow ID 0090714, read-out: Immature Colony IC50
[15] = Bone Marrow ID 0090714, read-out: Intermediate Colony IC50

Compound: O=C1CC[C@@H](N2Cc3c(OCc4ccc(CN5CCOCC5)cc4)cccc3C2=O)C(=O)N1 [Compound I-R, (R)-3-(4-((4-(morpholinomethyl)benzyl)oxy)-1-oxoisoindolin-2-yl)piperidine-2,6-dione]
- IL-10 (% of control) [1]: 442 % of control
- MCP-1 (% of control) [1]: 223 % of control
- RANTES (% of control) [1]: 151 % of control
- IC50 [1, 6]: 0.039 µM
- IC50 [1, 7]: 0.0062 µM
- IC50 ([1]; read-out: IL-6 production IC50): 0.083 µM
- IC50 ([1]; read-out: IL-8 production IC50): > 10 µM
- IC50 ([1]; read-out: MDC production IC50): 0.012 µM
- IC50 [1, 8]: > 10 µM
- IC50 [1, 9]: 0.0095 µM
- IC50 [2, 10]: 10 µM
- IC50 [2, 11]: > 10 µM
- IC50 [2, 12]: 0.4 µM
- IC50 [2, 13]: > 10 µM
- IC50 [2, 14]: 0.4 µM
- IC50 [2, 15]: > 10 µM
- NK cell IFN-γ production (NK cells): slightly more active than compound I
- GM-CSF production, times those of control cells ([3]; 10 nM): 6 times
- IL-2 production, times those of control cells ([3]; 10 nM): 15 times
- IL-13 production, times those of control cells ([3]; 10 nM): 7 times
- IL-10 production enhancement ([3]; 0.01 to 1 nM): ~6 fold
- IL-5 production, times that of control cells ([3]; 1 to 100 nM): up to 2.5 times
- IL-10 production at high concentration [3]: inhibited
- concentrations that enhanced IL-2, IL-3, IL-5, IL-10, IL-13, GM-CSF, IFN-γ, TNF-α and RANTES ([3]; for compound I RANTES at 10 nM): ≥ 1 nM

Compound: O=C1CCC(N2Cc3c(OCc4ccc(CN5CCOCC5)cc4)cccc3C2=O)C(=O)N1 (racemic) [Compound I, 3-(4-((4-(morpholinomethyl)benzyl)oxy)-1-oxoisoindolin-2-yl)piperidine-2,6-dione]
- IL-10 (% of control) [1]: 372 % of control
- MCP-1 (% of control) [1]: 208 % of control
- RANTES (% of control) [1]: 153 % of control
- IC50 [1, 6]: 0.0092 µM
- IC50 [1, 7]: 0.00085 µM
- IC50 ([1]; read-out: IL-6 production IC50): 0.01 µM
- IC50 ([1]; read-out: IL-8 production IC50): > 10 µM
- IC50 ([1]; read-out: MDC production IC50): 0.0026 µM
- IC50 ([1]; read-out: MIP-1α production IC50): 0.19 µM
- IC50 [1, 8]: > 10 µM
- IC50 [1, 9]: 0.0018 µM
- H929 tumor growth [4]: significantly inhibited H929 tumor growth in a dose-dependent manner
- IC50 [2, 10]: 0.1 to 1 µM
- IC50 [2, 11]: > 10 µM
- IC50 [2, 12]: 0.06 µM
- IC50 [2, 13]: > 10 µM
- IC50 [2, 14]: 0.05 µM
- IC50 [2, 15]: > 10 µM
- U87 tumor growth ([5]; 30 mg/kg qd): significantly inhibited U87 tumor growth
- tumor growth inhibition ([5]; 30 mg/kg, day 48): > 80%
- concentration at which enhancement of IL-5 production peaked [3]: 1 nM
- GM-CSF production, times those of control cells ([3]; 1 nM): 3 times
- IL-2 production, times those of control cells ([3]; 1 nM): 7 times
- IL-5 production, times over that of control cells ([3]; 1 nM): 6 times
- IL-13 production, times those of control cells ([3]; 1 nM): 5 times
- GM-CSF production, times those of control cells ([3]; 10 nM): 6 times
- IL-2 production, times those of control cells ([3]; 10 nM): 22 times
- IL-5 production enhancement ([3]; 10 nM): ≤ 2 fold
- IL-13 production, times those of control cells ([3]; 10 nM): 6.5 times
- IL-10 production at high concentration [3]: inhibited

Reference: US20260007679A1, “METHODS OF TREATING CANCER USING 3-(4-((4-(MORPHOLINOMETHYL)BENZYL)OXY)-1-OXOISOINDOLIN-2-YL)PIPERIDINE-2,6-DIONE” (Celgene Corporation, priority 2012, published 2026)
